Results published in patent US20260028334A1, “N-(3-(BENZO[B]THIOPHENE-2-CARBOXAMIDO)-PHENYL)-2,3-DIHYDROBENZO[B][1,4]DIOXINE-6-CARBOXAMIDE DERIVATIVES AND RELATED COMPOUNDS AS LACTATE/ATP PRODUCTION INHIBITORS FOR THE TREATMENT OF CANCER” (WMT Aktiengesellschaft, priority 2022, published 2026).

What was measured:
Type in all cases: cell-based
[1] = tested on: HeLa, 4T1, LLC1, A549, MDA-MB-231 and MiaPaCa2 cells; test: Assay for inhibition of ATP production (FIG. 1); settings: 48 hours treatment, 1.5 to 10000 nM
Method: The assay determines the amount of ATP in cells in culture.
Cells were plated at 4,000 per well in 96-well plate in a medium of high glucose DMEM (PAN) supplemented with 10% FBS (PAN), 2 mM glutamine-alanine (PAN), 2 mM pyruvate (Sigma) and 10 mL/L penicillin-streptomycin and grown at 37° C. in 0.5% O2, 5% CO2 and 75% humidity. For hypoxia, cells were grown and treated in the Whitley H35 Hypoxystation (Don Whitley Scientific) at 37° C. in 0.5% O2, 5% CO2 and 75% humidity. The next day, cells were induced with test compounds (FIG. 1: compounds of examples 3/16, 3/8, 10 at 10000, 3333, 1111, 370, 123, 41, 14, 5 and 1.5 nM; FIGS. 8A and 8B: compounds of example 3/19, 30 and 30/2 at 10000, 3333, 1111, 370, 123, 41, 14, 5 and 1.5 nM), as well as with vehicle (DMSO) only, for 48 hours. After this time, the medium was removed from the cells and intracellular ATP levels were determined using the Promega CellTiter-Glo 2.0 assay protocol (Promega, G9241). To estimate the effect of compounds on the ATP production, sample values were compared to the values of DMSO only. IC50 values were generated by plotting the luciferase counts against compound concentration.

[2] = tested on: ER stress markers CHAC, CHOP/DDIT3, XBP1 and SLC7A11; test: Gene expression analysis by qPCR (FIG. 3); settings: HeLa, 4T1, LLC1, A549, MDA-MB-231 and MiaPaCa2 cells, 10 nM, 0.5, 1, 2 and 4 hours
Method: (§1) Cells were plated at 40,000 cells per ml in medium of high glucose DMEM (PAN) supplemented with 10% FBS (PAN), 2 mM glutamine-alanine (PAN), 2 mM pyruvate (Sigma) and 10 mL/L penicillin-streptomycin (PAN), and grown at 37° C. in 0.5% O2, 5% CO2 and 75% humidity. Next day, cells were induced with test compounds (FIG. 3: compounds of example 3/16, 3/8, 10 at 10 nM; FIG. 8E-8AB: compounds of example 3/16, 3/8, 10, 3/19, 30 and 30/2 at 10 nM) 0.5, 1, 2 and 4 hours, as well as with vehicle (DMSO) only. After this time, the cells were lysed according to protocol (Promega, SV 96 Total RNA Isolation System, #Z3505). After transferring the lysate to a 96-well-RNA binding plate, RNA was isolated and put at approx. 1 μg into cDNA synthesis using LunaScript RT SuperMix Kit (NEB, #E3010). The resulting cDNA was diluted 1:5 and used for qPCR Analysis (Taqman). Luna Universal Probe qPCR Master Mix (NEB, #M3004) is used as 2× reaction mix to which the diluted cDNA is added. The qPCR analysis was performed using QuantStudio™ 6 Flex real-time PCR systems (Thermo Fisher Scientific).
(§2) A set of primers plus probe for each gene of interest was purchased at IDT (Integrated DNA Technologies).

[3] = tested on: ER stress markers CHAC and CHOP/DDIT3; test: Gene expression analysis by qPCR (FIG. 8E-8AB); settings: Panc02 and SKOV3 cells, 10 nM, 0.5, 1, 2 and 4 hours
Method: as §1, §2

[4] = tested on: HeLa cell line expressing GFP-LC3; test: Determination of autophagic flux; settings: HeLa GFP-LC3 reporter cells, 24 hours of treatment, flow cytometry, FIG. 6
Description: A HeLa cell line stably expressing an artificial protein construct consisting of Green Fluorescent Protein (GFP) as an N-terminal fusion to the human full-length LC3 protein, placed in front of a Red Fluorescent Protein (RFP) as an N terminal fusion to human LC3 lacking its C-terminal Glycine residue (LC3DG), was used to determine autophagic flux (Kaizuka et al., Mol. Cell (2016) 17 835-849) This construct is cleaved in cells by ATG4 at the C-terminus of the full-length LC3 protein, whereupon the GFP-LC3 fragment becomes conjugated to phosphatidyl ethanolamine. The RFP-LC3DG cannot be lipidated, and can be used as an internal reference to produce ratiometric values reporting autophagic flux. The lipidated GFP-LC3 protein becomes incorporated into the membrane of autophagosomes, and upon fusion with lysosomes, is degraded. Consequently, cells with a high autophagic flux have less GFP-LC3, whereas a low autophagic flux results in a relatively higher intracellular amount of GFP-LC3.
Reporter cells were grown as sub-confluent cultures and test compounds were applied at various concentrations. Thapsigargin, a known inducer of autophagy, was used as a positive control. After 24 hours of treatment, a single-cell suspension was prepared by trypsinization, and the GFP fluorescence determined by flow cytometry. A minimum of 10,000 single cells were evaluated for each condition.

In the case of O=C(Nc1ccc(F)c(NC(=O)c2cc3ccc(OCCCN4CCCC4)cc3s2)c1)c1ccc2c(c1)OCCO2 [3/8], the ATP production level [1] was “dose-dependent reduction”, the “ER stress markers CHAC, CHOP/DDIT3, XBP1 and SLC7A11” value [2] was “time-dependent upregulation” and the “ER stress markers CHAC and CHOP/DDIT3” value [3] was “time-dependent upregulation”. The autophagic flux [4] was “significantly enhance”.

For Cc1ccc(NC(=O)c2ccc3c(c2)OCCO3)cc1NC(=O)c1cc2cccnc2s1 [3/16], the ATP production level [1] was “dose-dependent reduction”, the “ER stress markers CHAC, CHOP/DDIT3, XBP1 and SLC7A11” value [2] was “time-dependent upregulation” and the “ER stress markers CHAC and CHOP/DDIT3” value [3] was “time-dependent upregulation”. For the same compound, the autophagic flux [4] was “significantly enhance”.
